The assay deals with T1, androgen receptor (AR-LBD) (Rattus norvegicus, UniProt P15207).
T1 construct: 5 μL of 2×AR-LBD/Fluoromone AL Red Complex contained in the kit; purchased Invitrogen
T1 sequence (P15207 651-882 limits assumed): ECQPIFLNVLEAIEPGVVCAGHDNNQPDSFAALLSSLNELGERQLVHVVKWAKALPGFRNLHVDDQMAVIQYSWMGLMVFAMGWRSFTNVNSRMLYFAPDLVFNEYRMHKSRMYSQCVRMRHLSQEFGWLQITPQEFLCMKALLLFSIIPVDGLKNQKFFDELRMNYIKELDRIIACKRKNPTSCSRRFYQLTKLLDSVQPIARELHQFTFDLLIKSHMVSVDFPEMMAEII
As to the kind of experiment: Evaluation of androgen receptor affinity (PolarScreen Androgen Receptor Competitor Assay Kit, Red; fluorescence polarization). The settings on record: 22° C. for 5 hours, relative to binding rate of 1 μM DHT, read-out: AR affinity (pEC50) (converted). On the procedure:
Evaluation of an Androgen Receptor Affinity
To examine the interaction of a compound with an androgen receptor, evaluation was carried out in accordance with the following procedure using PolarScreen™ Androgen Receptor Competitor Assay Kit, Red (Invitrogen). To 2 wells each of a 384 well black plate was added 5 μL of the compound solution. To each well was added 5 μL of 2×AR-LBD/Fluoromone AL Red Complex contained in the kit and the samples were reacted at 22° C. for 5 hours. After 5 hours of the reaction, fluorescence polarization was measured and the affinity was evaluated. The affinity of the compound was determined by comparing to the binding rate of 1 μM of dihydrotestosterone (DHT), and quantified the logarithm value (pEC50) of reciprocal value of the effective concentration of the compound which is equal to 50% of the binding rate by applying a 4 parameter goodness-of-fit calculation.

Structures are written as SMILES. Bounds are passed on as bounds.

Turning to `Cc1sc(N(C[C@H]2CCC[C@@H](CO)C2)c2ccc(C#N)cc2)nc1C(=O)NS(C)(=O)=O` (racemic) [Compound 347, 2-[4-cyano-N-[[cis-3-(hydroxymethyl)cyclohexyl]methyl]anilino]-5-methyl-N-methylsulfonyl-thiazole-4-carboxamide], the EC50 is 1260 nM.

For the compound `Cc1sc(N(C[C@H]2CCC[C@@H](CO)C2)c2ccc(C(F)(F)F)cc2)nc1C(=O)NS(C)(=O)=O` (racemic) [Compound 348, 2-[N-[[cis-3-(hydroxymethyl)cyclohexyl]methyl]-4-(trifluoromethyl)anilino]-5-methyl-N-methylsulfonyl-thiazole-4-carboxamide], the EC50 is 1260 nM.

As to `CO[C@@H]1CCC[C@H](CN(c2ccc(C#N)cc2)c2nc(C(=O)NS(C)(=O)=O)c(C)s2)C1` (racemic) [Compound 349, 2-[4-cyano-N-[[cis-3-methoxycyclohexyl]methyl]anilino]-5-methyl-N-methylsulfonyl-thiazole-4-carboxamide], the EC50 was 501 nM. To `Cc1sc(N(C[C@@H]2CCCC[C@H]2O)c2ccc(C#N)cc2)nc1C(=O)NS(C)(=O)=O` (racemic) [Compound 411, 2-[4-cyano-N-[[trans-2-hydroxycyclohexyl]methyl]anilino]-5-methyl-N-methylsulfonyl-thiazole-4-carboxamide] belongs 794 nM; to `Cc1sc(N(CC[C@@H]2CC[C@@H](F)C2)c2ccc(C#N)cc2)nc1C(=O)NS(C)(=O)=O` (racemic) [Compound 453, 2-[4-cyano-N-[2-[trans-3-fluorocyclopentyl]ethyl]anilino]-5-methyl-N-methylsulfonyl-thiazole-4-carboxamide], 251 nM; to `Cc1sc(N(CC[C@H]2C[C@H](O)CO2)c2ccc(C#N)cc2)nc1C(=O)NS(C)(=O)=O` (racemic) [Compound 457, 2-[4-cyano-N-[2-[trans-4-hydroxytetrahydrofuran-2-yl]ethyl]anilino]-5-methyl-N-methylsulfonyl-thiazole-4-carboxamide], more than 2000 nM. For `Cc1sc(N(CC[C@@H]2CC[C@@H](O)C2)c2ccc(C#N)cc2)nc1C(=O)NS(C)(=O)=O` (racemic) [Compound 459, 2-[4-cyano-N-[2-[trans-3-hydroxycyclopentyl]ethyl]anilino]-5-methyl-N-methylsulfonyl-thiazole-4-carboxamide] the value was 1260 nM; for `Cc1sc(N(Cc2ccccc2C#N)c2ccc(C#N)cc2)nc1C(=O)NS(C)(=O)=O` [Compound 8, 2-[4-cyano-N-[(2-cyanophenyl)methyl]anilino]-5-methyl-N-methylsulfonyl-thiazole-4-carboxamide], more than 2000 nM. To `COc1ccc(N(Cc2ccccc2)c2nc(C(=O)NS(C)(=O)=O)c(C)s2)cc1` [Compound 21, 2-(N-benzyl-4-methoxy-anilino)-5-methyl-N-methylsulfonyl-thiazole-4-carboxamide] belongs 1580 nM; to `COCCOc1ccc(N(Cc2ccccc2)c2nc(C(=O)NS(C)(=O)=O)c(C)s2)cc1` [Compound 22, 2-[N-benzyl-4-(2-methoxyethoxy)anilino]-5-methyl-N-methylsulfonyl-thiazole-4-carboxamide], 501 nM.

`Cc1sc(N(Cc2ccccc2)c2ccccc2OC(F)(F)F)nc1C(=O)NS(C)(=O)=O` [Compound 27, 2-[N-benzyl-2-(trifluoromethoxy)anilino]-5-methyl-N-methylsulfonyl-thiazole-4-carboxamide]: the EC50 is more than 2000 nM.

Turning to `Cc1sc(N(Cc2ccccc2)c2ccc(F)cc2)nc1C(=O)NS(C)(=O)=O` [Compound 28, 2-(N-benzyl-4-fluoro-anilino)-5-methyl-N-methylsulfonyl-thiazole-4-carboxamide], the EC50 was 1000 nM.

Consider `Cc1sc(N(Cc2ccccc2)c2cccc(F)c2)nc1C(=O)NS(C)(=O)=O` [Compound 29, 2-(N-benzyl-3-fluoro-anilino)-5-methyl-N-methylsulfonyl-thiazole-4-carboxamide], for which the EC50 was more than 2000 nM. With `Cc1sc(N(Cc2ccccc2)c2ccccc2F)nc1C(=O)NS(C)(=O)=O` [Compound 30, 2-(N-benzyl-2-fluoro-anilino)-5-methyl-N-methylsulfonyl-thiazole-4-carboxamide], the EC50 is more than 2000 nM. To `Cc1sc(N(Cc2ccccc2)c2cccc(Cl)c2)nc1C(=O)NS(C)(=O)=O` [Compound 32, 2-(N-benzyl-3-chloro-anilino)-5-methyl-N-methylsulfonyl-thiazole-4-carboxamide] belongs more than 2000 nM.

As to `Cc1sc(N(Cc2ccccc2)c2ccccc2Cl)nc1C(=O)NS(C)(=O)=O` [Compound 33, 2-(N-benzyl-2-chloro-anilino)-5-methyl-N-methylsulfonyl-thiazole-4-carboxamide], the EC50 is more than 2000 nM. For `Cc1sc(N(Cc2ccccc2)c2cccc(OC(F)(F)F)c2)nc1C(=O)NS(C)(=O)=O` [Compound 35, 2-[N-benzyl-3-(trifluoromethoxy)anilino]-5-methyl-N-methylsulfonyl-thiazole-4-carboxamide] the value was more than 2000 nM. Regarding `Cc1sc(N(Cc2ccccc2)c2ccc(F)cc2F)nc1C(=O)NS(C)(=O)=O` [Compound 36, 2-(N-benzyl-2,4-difluoro-anilino)-5-methyl-N-methylsulfonyl-thiazole-4-carboxamide], the EC50 was 1260 nM. Take `Cc1sc(N(Cc2ccccc2)c2ccc(OCc3ccccc3)cc2)nc1C(=O)NS(C)(=O)=O` [Compound 38, 2-(N-benzyl-4-benzyloxy-anilino)-5-methyl-N-methylsulfonyl-thiazole-4-carboxamide]: the EC50 was more than 2000 nM.

`Cc1sc(N(Cc2ccccn2)c2ccc(C#N)cc2)nc1C(=O)NS(C)(=O)=O` [Compound 42, 2-[4-cyano-N-(2-pyridylmethyl)anilino]-5-methyl-N-methylsulfonyl-thiazole-4-carboxamide]: the EC50 was more than 2000 nM. For `Cc1sc(N(Cc2cccnc2)c2ccc(C#N)cc2)nc1C(=O)NS(C)(=O)=O` [Compound 43, 2-[4-cyano-N-(3-pyridylmethyl)anilino]-5-methyl-N-methylsulfonyl-thiazole-4-carboxamide] the value was more than 2000 nM. For the compound `Cc1sc(N(Cc2ccncc2)c2ccc(C#N)cc2)nc1C(=O)NS(C)(=O)=O` [Compound 44, 2-[4-cyano-N-(4-pyridylmethyl)anilino]-5-methyl-N-methylsulfonyl-thiazole-4-carboxamide], the EC50 was more than 2000 nM.

As for `COc1ccccc1N(Cc1ccccc1)c1nc(C(=O)NS(C)(=O)=O)c(C)s1` [Compound 47, 2-(N-benzyl-2-methoxy-anilino)-5-methyl-N-methylsulfonyl-thiazole-4-carboxamide], the EC50 is more than 2000 nM. Regarding `Cc1sc(N(Cc2ccccc2)c2ccc(F)c(F)c2)nc1C(=O)NS(C)(=O)=O` [Compound 48, 2-(N-benzyl-3,4-difluoro-anilino)-5-methyl-N-methylsulfonyl-thiazole-4-carboxamide], the EC50 is 398 nM.

For `Cc1sc(N(Cc2ccccc2)c2cccnc2)nc1C(=O)NS(C)(=O)=O` [Compound 49, 2-[benzyl(3-pyridyl)amino]-5-methyl-N-methylsulfonyl-thiazole-4-carboxamide], the EC50 was more than 2000 nM. For `Cc1sc(N(Cc2ccccc2)c2cccc3cccnc23)nc1C(=O)NS(C)(=O)=O` [Compound 53, 2-[benzyl(8-quinolyl)amino]-5-methyl-N-methylsulfonyl-thiazole-4-carboxamide] the value was more than 2000 nM; for `Cc1sc(N(Cc2ccccc2)c2cnccn2)nc1C(=O)NS(C)(=O)=O` [Compound 55, 2-[benzyl(pyrazin-2-yl)amino]-5-methyl-N-methylsulfonyl-thiazole-4-carboxamide], more than 2000 nM. As for `Cc1sc(N(c2ccc(C#N)cc2)C(C)c2ccccc2)nc1C(=O)NS(C)(=O)=O` (centres unmarked) [Compound 58, 2-[4-cyano-N-(1-phenylethyl)anilino]-5-methyl-N-methylsulfonyl-thiazole-4-carboxamide], the EC50 is more than 2000 nM.

Consider `Cc1sc(N(C)c2ccc(C#N)cc2)nc1C(=O)NS(C)(=O)=O` [Compound 60, 2-(4-cyano-N-methyl-anilino)-5-methyl-N-methylsulfonyl-thiazole-4-carboxamide], for which the EC50 was more than 2000 nM.

On to `Cc1sc(N(CCc2ccc(O)cc2)c2ccc(C#N)cc2)nc1C(=O)NS(C)(=O)=O` [Compound 62, 2-[4-cyano-N-[2-(4-hydroxyphenyl)ethyl]anilino]-5-methyl-N-methylsulfonyl-thiazole-4-carboxamide], for which the EC50 is 1580 nM. For `Cc1sc(N(CC(=O)C(C)(C)C)c2ccc(C#N)cc2)nc1C(=O)NS(C)(=O)=O` [Compound 63, 2-(4-cyano-N-(3,3-dimethyl-2-oxo-butyl)anilino)-5-methyl-N-methylsulfonyl-thiazole-4-carboxamide] the value was more than 2000 nM; for `Cc1sc(N(CC2CC2)c2ccc(C#N)cc2)nc1C(=O)NS(C)(=O)=O` [Compound 67, 2-[4-cyano-N-(cyclopropylmethyl)anilino]-5-methyl-N-methylsulfonyl-thiazole-4-carboxamide], more than 2000 nM.
